# In PMC11933534, “Favipiravir induces HuNoV viral mutagenesis and infectivity loss with clinical improvement in immunocompromised patients” (Clinical Immunology (Orlando, Fla.), 2024):
# Values joined by “and” are separate entries in the source; they are usually repeats but may differ in a detail not shown here. Equal values may be shown once. Read-outs that look alike come from different tables or passages of the source.
# Experiments:
# [1] = Adverse events during off-label treatment of patients; type: in vivo, human
# [2] = test system: HuNoV; parameters: method as in PMID 30485769; details: P2 (CVID); favipiravir 1200 mg 12-hourly, three courses; cited from earlier work
# [3] = test system: HuNoV; test: Stool HuNoV viral load (RT-qPCR Ct) in treated patients; type: in vivo, human
# [4] = test system: HuNoV; test: Infectivity of P1 stool-sample HuNoV in zebrafish larvae (fold increase, ID50); type: in vivo
# Procedure: Human stool samples, positive for HuNoV, were obtained from the Great Ormond Street Hospital for Children (United Kingdom) and the University Hospital of Leuven (Belgium). An aliquot of 100 mg of each stool sample was re-suspended in 1 mL of sterile PBS, thoroughly vortexed, and centrifuged (5 min, 1000 g), supernatant was harvested and stored at −80 °C. This virus suspension was used for RNA extractions, quantification by RT-qPCR and injections in the zebrafish larvae. HuNoV RNA was extracted from 100 μL of PBS suspension using the Direct-zol RNA kit (Zymo Research, Irvine, CA, USA), according to the manufacturer's protocol. The original concentrations of the stool samples were as followed: SS A: 5.52*10^9 copies/g stool, SS B: 1.34*10^11 copies/g stool, SS C: 2.07*10^11 copies/g stool, SS D: 3.07*10^10 copies/g stool, SS E: 1.23*10^12 copies/g stool, SS F: 3.12*10^11 copies/g stool and GII.4 Sydney[P16] (in house collection KU Leuven): 1.46*10^10 copies/g stool.
# Zebrafish larvae were anesthetized and positioned as described previously, in short: zebrafish larvae of 3 days post fertilization were anesthetized and transferred to an agarose mold to position them on their dorsal side with the yolk facing upward. In every experiment, the injection needle was calibrated to ensure the precision of the injection volume. Microinjection was performed using an M3301R Manual Micromanipulator (WPI, Friedberg, Germany) and a FemtoJet 4i pressure microinjector (Eppendorf, Hamburg, Germany). Compound-treated zebrafish larvae received a 1 nL (1.5 nL in case of the combination treatment) injection of compound in the pericardial cavity, while negative control zebrafish were injected with an equal volume of DMSO. Subsequently, the zebrafish larvae received an injection of 3 nL virus in the yolk. After both injections, zebrafish larvae were transferred to 6-well plates with Danieau's solution and further maintained in an incubator with a 14/10 h light/dark cycle at 32 °C.
# Zebrafish larvae were homogenized (Precellys 24, Bertin Technologies, Montigny-le-Bretonneux, France), the homogenates were cleared by centrifugation (5 min, 9000 g), and RNA was extracted using the Direct-zol RNA kit (Zymo Research, Irvine, CA, USA), according to the manufacturer's protocol. RNA levels were quantified with a one-step RT-qPCR (iTaq Universal Probes One-Step Kit, Bio-Rad, Hercules, CA, USA) as previously described.
# To start, all stool samples were brought to the same theoretical inoculum (± 1000 viral RNA copies/3 nL injection volume) by dilution with PBS. To compare the viral infectivity between different stool samples, multiple methods were used; A) calculating the fold increase by taking the input based on the viral load of P1's stool samples and the amount of viral RNA copies/zebrafish at the peak of replication into account which are both quantified by RT-qPCR and B) determining the 50% infectious dose for each stool sample based on a well-established method adapted to the zebrafish replication model by diluting the collected stool samples to evaluate at which dilution the infectivity is lost.
# [5] = test system: HuNoV; test: Clinical response of immunocompromised patients with chronic HuNoV infection; type: in vivo, human
# Procedure: The Drugs and Therapeutics Committees at Great Ormond Street Hospital for Children, Great North Children's Hospital and Royal Free London NHS Trust approved treatment with favipiravir +/− nitazoxanide in four immunocompromised patients with life-threatening/severe chronic HuNoV infections. After obtaining informed consent, microbiological and pharmacological monitoring was performed. Informed consent was also obtained for microbiological monitoring in 2 untreated patients with HuNoV infections. Residual diagnostic viral samples were released for whole-genome sequencing through the UCL/UCLH Pathogen Biobank National Research Ethics Service Committee London Fulham (reference: [12]/LO/1089). For P1 specifically, residual stool samples were released for in vivo infectivity evaluation in the zebrafish model with research ethics approval from London Bloomsbury Research Ethics Committee (reference: 07/Q0508/43). This allows the use of pseudonymised residual diagnostic samples for research. An additional stool sample positive for HuNoV from the existing collection of samples of the University Hospital of Leuven (Belgium) was used (reference: G-2021–4376). Informed consent was obtained from the patient. […]
# [6] = Favipiravir plasma trough level monitoring in patients (UPLC-MS/MS); type: in vivo, human
# Procedure: Plasma was isolated from patient blood samples collected in EDTA. Frozen plasma samples were shipped to Laboratoire de Pharmacocinétique-Toxicologie, […] La Timone, Aix-Marseille Université, Marseille, France for favipiravir concentration analysis. The quantification of favipiravir in thawed plasma samples was performed by ultra-performance liquid chromatography coupled with tandem mass spectrometry (UPLC-MS/MS) method (UPLC-TQD, Waters, USA) with a lower limit of quantification of 0.5 μg/mL [34]. Validation of the assay was performed in accordance with the 2012 EMA guidelines and the ISO15189 guidelines. Model parameter estimation, model simulation properties (visual predictive check) and dose simulations were assessed using […]2 (2.0.6) and rxode2 (2.0.7) in R (4.2.0), as described elsewhere.
structure (smiles),measurement,setting,value
NC(=O)c1nc(F)c[nH]c1=O [favipiravir],Adverse event,"[1]; P1, favipiravir 200 mg 8-hourly + nitazoxanide 200 mg 12-hourly, suspected to be drug-induced, several medications discontinued",conjugated hyperbilirubinaemia
same,Recurrence of conjugated hyperbilirubinaemia,"[1]; P1, restarted favipiravir 400 mg 8-hourly + nitazoxanide 200 mg 12-hourly",did not recur
same,Adverse event,"[1]; P3, favipiravir 12-hourly 400 mg increased to 800 mg, transaminitis did not recur",nail discolouration and frequent headaches
same,Adverse event,"[1]; P3, favipiravir 12-hourly 1200 mg, discontinued after one month",progressing transaminitis
same,Adverse event,"[1]; P4, after 2 months of favipiravir 400 mg 8-hourly + nitazoxanide, nail discolouration reversed after discontinuation",nail discolouration and intermittent jaundice
same,Clinical response,[2],"Weight gain, reduced stool output, decreased adjunctive loperamide"
same,Stool HuNoV viral load,"[3]; P3, favipiravir 12-hourly 1200 mg, before treatment max Ct 21.2",30.9 Ct
same,Stool HuNoV viral load,"[3]; P4, favipiravir 400 mg 8-hourly + nitazoxanide 200 mg 12-hourly, max Ct, before treatment max Ct 17.9",27.8 Ct
same,"Fold increase in viral RNA, 0 to 2 dpi","[4]; P1 SS B, 2 days into favipiravir treatment (after 10 days ribavirin), ~1000 genome copies, pre-treatment SS A 321 ± 177",143 ± 76 fold
same,50% infectious dose (ID50),"[4]; P1 SS B, 2 days into treatment, pre-treatment SS A 289",697 viral RNA copies/zebrafish
same,"Fold increase in viral RNA, 0 to 2 dpi","[4]; P1 SS C, 125 days into favipiravir treatment, ~1000 genome copies, pre-treatment SS A 321 ± 177",53 ± 31 fold
same,50% infectious dose (ID50),"[4]; P1 SS C, 125 days into treatment, pre-treatment SS A 289",461 viral RNA copies/zebrafish
same,50% infectious dose (ID50),"[4]; P1 SS D, after a 2-month treatment gap",338 viral RNA copies/zebrafish
same,"Fold increase in viral RNA, 0 to 2 dpi","[4]; P1 SS D, after a treatment gap of 2 months, ~1000 genome copies",177 ± 55 fold
same,"Fold increase in viral RNA, 0 to 2 dpi","[4]; P1 SS E, 6 months after re-introduction at higher favipiravir dose",75 ± 21 fold
same,50% infectious dose (ID50),"[4]; P1 SS E, after treatment reintroduction (higher dose)",880 viral RNA copies/zebrafish
same,"Fold increase in viral RNA, 0 to 2 dpi","[4]; P1 SS F, 7 months after re-introduction at higher favipiravir dose",47 ± 16 fold
same,50% infectious dose (ID50),"[4]; P1 SS F, after treatment reintroduction (higher dose)",1110 viral RNA copies/zebrafish
same,Increase in the 50% infectious dose in HuNoV shed during treatment,[4]; P1 stool samples over one year of treatment,~1 log10
same,Clinical response,"[5]; P3 (CID), favipiravir monotherapy","Weight gain, reduced stool output, improved enteral feeding"
same,Patient weight after treatment,"[5]; P3, second course up to 12-hourly 800 mg, four months, from 28.9 kg",33.3 kg
same,Favipiravir plasma trough level,"[6]; P1, 200 mg TDS (8-hourly, 51 mg/kg/day), average at month four",10.0 µg/mL
same,Favipiravir plasma trough level,"[6]; P1, 400 mg TDS (8-hourly, 97 mg/kg/day)",154 µg/mL and 154.0 µg/mL
same,Favipiravir plasma trough level,"[6]; P4, 400 mg TDS (8-hourly, 67 mg/kg/day)",159 µg/mL and 159.0 µg/mL
